These results are taken from patent US7786141B2 (Vertex Pharmaceuticals Incorporated, priority 2004, dated 2010).

Bounds are passed on as bounds.

One test deals with T1, M1 muscarinic receptor (Homo sapiens, UniProt P11229).
T1 construct: expressed in transfected cells; host or cells: CHO (M1-CHO)
T1 sequence (P11229 1-460): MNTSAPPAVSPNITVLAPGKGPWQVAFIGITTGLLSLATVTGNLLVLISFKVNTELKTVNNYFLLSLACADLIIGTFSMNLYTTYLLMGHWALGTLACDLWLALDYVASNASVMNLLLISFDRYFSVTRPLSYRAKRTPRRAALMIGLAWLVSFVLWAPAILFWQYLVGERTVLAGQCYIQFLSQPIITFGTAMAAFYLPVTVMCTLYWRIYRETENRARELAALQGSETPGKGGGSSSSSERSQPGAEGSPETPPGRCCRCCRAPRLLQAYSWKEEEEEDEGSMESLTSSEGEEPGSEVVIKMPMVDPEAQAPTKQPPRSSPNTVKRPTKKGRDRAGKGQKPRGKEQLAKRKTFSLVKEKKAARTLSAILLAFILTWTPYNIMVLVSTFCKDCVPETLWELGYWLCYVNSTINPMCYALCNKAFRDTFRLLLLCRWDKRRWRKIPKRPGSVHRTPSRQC
Briefly: Functional mobilization of intracellular calcium (FLIPR) in M1-CHO cells. The class given is cell-based. The conditions noted are these: Table 4; for Emax: 100% efficacy is the maximum response obtained with the Carbachol control; for M1 Activity: modulating M1 receptor. The method, boiled down:
(§1)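 CHO cells stably expressing human M1 or M4 receptor were loaded with Fluo-3 AM (or Calcium 3 dye) in Hepes-buffered saline, pH 7.4, with 1 mM probenecid, 0.5% final DMSO. Agonist mode: compound added directly; antagonist mode: 15 min preincubation before carbachol at EC80. FLIPR fluorescence recorded 60 sec.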
(In general: Calcium assays in cells follow changes in intracellular calcium, usually with a dye or a luminescent sensor.)

Another test addresses T2, M4 muscarinic receptor (Homo sapiens, UniProt P08173).
T2 construct: expressed in transfected cells; host or cells: CHO (M4-CHO)
T2 sequence (P08173 1-479): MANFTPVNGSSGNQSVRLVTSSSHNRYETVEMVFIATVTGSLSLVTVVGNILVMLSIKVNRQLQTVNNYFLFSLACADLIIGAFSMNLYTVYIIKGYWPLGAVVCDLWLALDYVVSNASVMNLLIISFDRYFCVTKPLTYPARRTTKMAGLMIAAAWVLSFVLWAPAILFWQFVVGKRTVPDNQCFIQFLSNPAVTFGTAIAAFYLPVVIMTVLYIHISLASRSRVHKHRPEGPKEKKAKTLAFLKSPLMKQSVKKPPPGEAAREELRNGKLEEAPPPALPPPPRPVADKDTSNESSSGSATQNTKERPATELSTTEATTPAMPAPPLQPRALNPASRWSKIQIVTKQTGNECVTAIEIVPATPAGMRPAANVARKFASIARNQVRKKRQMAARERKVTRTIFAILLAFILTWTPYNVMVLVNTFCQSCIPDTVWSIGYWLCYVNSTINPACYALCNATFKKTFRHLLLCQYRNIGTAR
Briefly: Functional mobilization of intracellular calcium (FLIPR) in M4-CHO cells. Format: cell-based. The settings on record: Table 4; for Emax: 100% efficacy is the maximum response obtained with the Carbachol control; for M4 Activity: modulating M4 receptor. The method in brief: as §1

One may read the Emax as the greatest response seen or fitted, relative to the assay's reference. Take `O=C(O)C1CC2(CCN(C3CCCCCC3)CC2)c2ccccc21` (centres unmarked) [compound 488]: at M1 muscarinic receptor, the Emax fell in the range of 25 to 100% and the “M1 Activity” value is on record as “x (activity was measured to be greater than 5.0 μM)”. At M4 muscarinic receptor, the maximal effect (Emax) lay in the range of 25 to 100% and the “M4 Activity” value is given as “x (activity was measured to be greater than 5.0 μM)”.
Consider `CC(=O)N1CC2(CCN(C3CCN(c4cncc(C)n4)CC3)CC2)c2ccccc21` [compound 489], for which, at M1 muscarinic receptor, the Emax was in the range of 25 to 100% and the “M1 Activity” value was “xxx (activity was measured to be less than 2.0 μM)”. For the same molecule, at M4 muscarinic receptor, the Emax was in the range of 25 to 100% and the “M4 Activity” value was “xxx (activity was measured to be less than 2.0 μM)”.
For `CCC(=O)N[C@H]1CC2(CCN([C@@H]3C[C@@H]4CC[C@@H]3C4)CC2)c2ccccc21` [compound 490], at M1 muscarinic receptor, the Emax fell in the range of 25 to 100% and the “M1 Activity” value is given as “x (activity was measured to be greater than 5.0 μM)”. For the same molecule, at M4 muscarinic receptor, the Emax was over 100% and the “M4 Activity” value is “xxx (activity was measured to be less than 2.0 μM)”.
For `CCOC(=O)N1CCC(N2CCC3(CC2)CN(C(C)=O)c2c(-c4ccc(C(C)=O)cc4)cccc23)CC1` [compound 491], on M1 muscarinic receptor, the Emax lay within 25 to 100%; the “M1 Activity” value was “xx (activity was measured to be between 2.0 μM and 5.0 μM)”. Also, at M4 muscarinic receptor, the Emax was under 25%; the “M4 Activity” value was “xx (activity was measured to be between 2.0 μM and 5.0 μM)”.
In the case of `CN(C)C(=O)N1CC2(CCN(C3CCN(C(=O)CCC#N)CC3)CC2)c2cc(F)ccc21` [compound 492], on M1 muscarinic receptor, the Emax fell in the range of 25 to 100% and the “M1 Activity” value was “x (activity was measured to be greater than 5.0 μM)”. On M4 muscarinic receptor, the Emax is under 25% and the “M4 Activity” value is “x (activity was measured to be greater than 5.0 μM)”.
With `C#CCOC(=O)N1CC[C@H](CN2CCC3(CC2)CN(C(C)=O)c2ccccc23)C1` [compound 493], on M1 muscarinic receptor, the Emax was over 100% and the “M1 Activity” value is “xxx (activity was measured to be less than 2.0 μM)”. Also, on M4 muscarinic receptor, the maximum response (Emax) was over 100% and the “M4 Activity” value is recorded as “xxx (activity was measured to be less than 2.0 μM)”.
In the case of `CCOC(=O)N1CCC(N2CCC3(CC2)CN(C(=O)NC(C)C)c2ccccc23)CC1` [compound 494], at M1 muscarinic receptor, the Emax was 25 to 100%; the “M1 Activity” value was “xx (activity was measured to be between 2.0 μM and 5.0 μM)”. Besides, at M4 muscarinic receptor, the Emax was in the range of 25 to 100% and the “M4 Activity” value is “xxx (activity was measured to be less than 2.0 μM)”.
Turning to `CC(=O)N1CC2(CCN(C3CCN(C(=O)OCC(C)(C)C)CC3)CC2)c2ccccc21` [compound 496], on M1 muscarinic receptor, the Emax is under 25% and the “M1 Activity” value is recorded as “x (activity was measured to be greater than 5.0 μM)”. Moreover, at M4 muscarinic receptor, the Emax was under 25% and the “M4 Activity” value is “x (activity was measured to be greater than 5.0 μM)”.
As for `CN(C)C(=O)N1CC2(CCN(C3CCN(c4nccnc4C#N)CC3)CC2)c2cc(F)ccc21` [compound 497], on M1 muscarinic receptor, the Emax was 25 to 100%; the “M1 Activity” value was “xx (activity was measured to be between 2.0 μM and 5.0 μM)”. Also, at M4 muscarinic receptor, the Emax fell in the range of 25 to 100%; the “M4 Activity” value was “xx (activity was measured to be between 2.0 μM and 5.0 μM)”.
On to `Cc1ccc2c(c1)C(=O)CC21CCN(CC2C[C@H]3C=C[C@H]2C3)CC1` (some centres unmarked) [compound 498], for which, on M1 muscarinic receptor, the Emax lay within 25 to 100% and the “M1 Activity” value is “xxx (activity was measured to be less than 2.0 μM)”. For the same molecule, on M4 muscarinic receptor, the Emax was in the range of 25 to 100% and the “M4 Activity” value is “xxx (activity was measured to be less than 2.0 μM)”.
For the molecule `CCOC(=O)N1CCC(N2CCC3(CC2)CN(C(C)=O)c2c(-c4cccc(F)c4)cccc23)CC1` [compound 499], on M1 muscarinic receptor, the Emax lay in the range of 25 to 100% and the “M1 Activity” value was “x (activity was measured to be greater than 5.0 μM)”. In addition, on M4 muscarinic receptor, the Emax is under 25% and the “M4 Activity” value is “x (activity was measured to be greater than 5.0 μM)”.
